Laboratory results: BigSolDB 2.1

Cc1ccc(S(N)(=O)=O)cc1
Conditions	solubility (mole fraction)
in acetone, 273.15 K	0.128
in acetone, 279.15 K	0.137
in acetone, 283.65 K	0.144
in acetone, 289.15 K	0.154
in acetone, 293.65 K	0.163
in acetone, 298.85 K	0.173
in acetone, 303.25 K	0.184
in acetone, 308.95 K	0.197
in acetone, 313.15 K	0.211
in acetone, 317.65 K	0.227
in acetone, 322.15 K	0.243
in acetonitrile, 273.15 K	0.0408
in acetonitrile, 279.15 K	0.047
in acetonitrile, 284.15 K	0.0538
in acetonitrile, 289.15 K	0.063
in acetonitrile, 294.15 K	0.0722
in acetonitrile, 299.15 K	0.0826
in acetonitrile, 303.65 K	0.093
in acetonitrile, 309.15 K	0.106
in acetonitrile, 313.15 K	0.121
in acetonitrile, 319.15 K	0.143
in acetonitrile, 324.75 K	0.164
in cyclohexanone, 273.15 K	0.122
in cyclohexanone, 279.15 K	0.131
in cyclohexanone, 284.15 K	0.139
in cyclohexanone, 289.15 K	0.147
in cyclohexanone, 294.15 K	0.157
in cyclohexanone, 299.15 K	0.169
in cyclohexanone, 303.65 K	0.18
in cyclohexanone, 309.15 K	0.192
in cyclohexanone, 313.15 K	0.206
in cyclohexanone, 319.15 K	0.226
in cyclohexanone, 324.75 K	0.244
in cyclopentanone, 273.15 K	0.149
in cyclopentanone, 279.15 K	0.158
in cyclopentanone, 284.15 K	0.166
in cyclopentanone, 289.15 K	0.175
in cyclopentanone, 294.15 K	0.185
in cyclopentanone, 299.15 K	0.196
in cyclopentanone, 303.65 K	0.206
in cyclopentanone, 309.15 K	0.218
in cyclopentanone, 313.15 K	0.231
in cyclopentanone, 319.15 K	0.249
in cyclopentanone, 324.75 K	0.266
in dichloromethane, 273.15 K	0.00336
in dichloromethane, 279.15 K	0.00392
in dichloromethane, 284.15 K	0.00458
in dichloromethane, 289.15 K	0.00587
in dichloromethane, 294.15 K	0.00705
in dichloromethane, 299.15 K	0.00877
in dichloromethane, 303.65 K	0.0103
in dichloromethane, 309.15 K	0.0128
in dichloromethane, 312.15 K	0.0143
in ethanol, 273.15 K	0.0174
in ethanol, 279.15 K	0.0203
in ethanol, 283.65 K	0.0233
in ethanol, 289.15 K	0.0268
in ethanol, 293.65 K	0.0312
in ethanol, 298.85 K	0.0361
in ethanol, 303.25 K	0.0425
in ethanol, 308.95 K	0.05
in ethanol, 313.15 K	0.0592
in ethanol, 317.65 K	0.0705
in ethanol, 322.15 K	0.0842
in ethyl acetate, 273.15 K	0.0364
in ethyl acetate, 279.15 K	0.0401
in ethyl acetate, 283.65 K	0.0442
in ethyl acetate, 289.15 K	0.0481
in ethyl acetate, 293.65 K	0.0541
in ethyl acetate, 298.85 K	0.059
in ethyl acetate, 303.25 K	0.0652
in ethyl acetate, 308.95 K	0.0718
in ethyl acetate, 313.15 K	0.0797
in ethyl acetate, 317.65 K	0.0897
in ethyl acetate, 322.15 K	0.1
in ethyl formate, 273.15 K	0.023
in ethyl formate, 279.15 K	0.0268
in ethyl formate, 284.15 K	0.0308
in ethyl formate, 289.15 K	0.0342
in ethyl formate, 294.15 K	0.0391
in ethyl formate, 299.15 K	0.0447
in ethyl formate, 303.65 K	0.0507
in ethyl formate, 309.15 K	0.0582
in ethyl formate, 313.15 K	0.0655
in ethyl formate, 319.15 K	0.0784
in ethyl formate, 324.75 K	0.0914
in isobutanol, 273.15 K	0.00456
in isobutanol, 279.15 K	0.00562
in isobutanol, 283.65 K	0.0069
in isobutanol, 289.15 K	0.00846
in isobutanol, 293.65 K	0.0103
in isobutanol, 298.85 K	0.0124
in isobutanol, 303.25 K	0.016
in isobutanol, 308.95 K	0.0193
in isobutanol, 313.15 K	0.0236
in isobutanol, 317.65 K	0.0288
in isobutanol, 322.15 K	0.0357
in isopentanol, 273.15 K	0.00515
in isopentanol, 279.15 K	0.00618
in isopentanol, 284.15 K	0.00814
in isopentanol, 289.15 K	0.00944
in isopentanol, 294.15 K	0.0114
in isopentanol, 299.15 K	0.0139
in isopentanol, 303.65 K	0.0168
in isopentanol, 309.15 K	0.0204
in isopentanol, 313.15 K	0.0251
in isopentanol, 319.15 K	0.0319
in isopentanol, 324.75 K	0.039
in isopropanol, 273.15 K	0.0077
in isopropanol, 279.15 K	0.00943
in isopropanol, 283.65 K	0.0114
in isopropanol, 289.15 K	0.0137
in isopropanol, 293.65 K	0.0167
in isopropanol, 298.85 K	0.0201
in isopropanol, 303.25 K	0.0246
in isopropanol, 308.95 K	0.0301
in isopropanol, 313.15 K	0.0365
in isopropanol, 317.65 K	0.0447
in isopropanol, 322.15 K	0.0552
in methanol, 273.15 K	0.0316
in methanol, 279.15 K	0.0362
in methanol, 283.65 K	0.0415
in methanol, 289.15 K	0.0473
in methanol, 293.65 K	0.0544
in methanol, 298.85 K	0.0626
in methanol, 303.25 K	0.0724
in methanol, 308.95 K	0.0836
in methanol, 313.15 K	0.0971
in methanol, 317.65 K	0.112
in methanol, 322.15 K	0.131
in methyl acetate, 273.15 K	0.0494
in methyl acetate, 279.15 K	0.0558
in methyl acetate, 284.15 K	0.062
in methyl acetate, 289.15 K	0.0676
in methyl acetate, 294.15 K	0.075
in methyl acetate, 299.15 K	0.0833
in methyl acetate, 303.65 K	0.0925
in methyl acetate, 309.15 K	0.103
in methyl acetate, 313.15 K	0.115
in methyl acetate, 319.15 K	0.132
in methyl acetate, 324.75 K	0.148
in n-butanol, 273.15 K	0.00725
in n-butanol, 279.15 K	0.00871
in n-butanol, 283.65 K	0.0104
in n-butanol, 289.15 K	0.0124
in n-butanol, 293.65 K	0.0148
in n-butanol, 298.85 K	0.0172
in n-butanol, 303.25 K	0.0209
in n-butanol, 308.95 K	0.0253
in n-butanol, 313.15 K	0.0303
in n-butanol, 317.65 K	0.0363
in n-butanol, 322.15 K	0.044
in n-pentanol, 273.15 K	0.00607
in n-pentanol, 279.15 K	0.00712
in n-pentanol, 284.15 K	0.00906
in n-pentanol, 289.15 K	0.0107
in n-pentanol, 294.15 K	0.0128
in n-pentanol, 299.15 K	0.0153
in n-pentanol, 303.65 K	0.0182
in n-pentanol, 309.15 K	0.022
in n-pentanol, 313.15 K	0.0271
in n-pentanol, 319.15 K	0.0343
in n-pentanol, 324.75 K	0.0416
in n-propanol, 273.15 K	0.00916
in n-propanol, 279.15 K	0.0111
in n-propanol, 283.65 K	0.013
in n-propanol, 289.15 K	0.0154
in n-propanol, 293.65 K	0.0183
in n-propanol, 298.85 K	0.0215
in n-propanol, 303.25 K	0.0259
in n-propanol, 308.95 K	0.0312
in n-propanol, 313.15 K	0.0376
in n-propanol, 317.65 K	0.0455
in n-propanol, 322.15 K	0.0554
